These results are taken from patent US20240180800A1, “Oral Care Compositions Containing Stannous Ion Source” (Colgate-Palmolive Company, priority 2022, published 2024).

Common to all, as to type: physicochemical
Data set [1] in a line: Iodine titration of Sn(II) in SnF2-TSPP solution with antioxidant upon aging at 60° C. Particulars: for Sn(II) %: after 2 weeks of aging at 60° C. On the procedure: (§1) The effect of antioxidants on the stannous stability in the presence of tetrasodium pyrophosphate (TSPP) was examined. Samples of Sn(II) were prepared by dissolving TSPP and SnF2 in water with the final concentration of SnF2 equal to 2 wt. %. Antioxidant (butylated hydroxytoluene (BHT), butylated hydroxyanisole (BHA), or sodium ascorbyl phosphate (SAP)) was added to the samples with the molar ratio of SnF2:TSPP:antioxidant equal to 1:1:0.3. The pH of the solutions was adjusted with NaOH to pH 7. The solutions were not fully clear due to the high concentration of SnF2 and limited solubility of certain antioxidants. Some amount of the precipitate/undissolved material was evident in the vials.
Iodine titration: The stability of Sn (II) was further examined by iodine titration assay. Titration measurements were performed through indirect titration. 2 M citric acid solution was added to the samples in excess and 0.1 N Iodine was added until the solutions turned light brown. The samples were covered with parafilm and aluminum foil and left mixing in the dark for 2 hours. Then, titration with 0.1 N sodium thiosulfate standard was performed using a 25 mL Titrette Bottletop Burette (BrandTech Scientific, Inc., Essex, CT, USA) until the solutions turned clear. Sn(II) concentration was calculated based on the amount of sodium thiosulfate and iodine used in the reaction. The amount of Sn(II) present in the SnF2-TSPP solution at different time points: fresh, 1 week and 2 weeks aged at 60° C. with and without the antioxidant (SAP, BHA, or BHT) was measured. The result is in good agreement with the FTIR result discussed above. The amount of Sn(II) was highest in the sample with SAP after 2 weeks of 60° C. aging.
(§2) In order to identify the optimal concentration of antioxidants (SAP and sodium ascorbate) that can increase stannous stability in aqueous solutions, samples of Sn(II) with TSPP and various concentrations of SAP or sodium ascorbate were tested for the stability of Sn(II). Samples of Sn(II) were prepared by dissolving TSPP and SnF2 in water with the final concentration of SnF2 equal to 2 wt %. Antioxidant (SAP or sodium ascorbate) was added to the samples with the molar ratio of SnF2:TSPP:antioxidant equal to 1:1:x, where x was between 0.05 and 0.3. The pH of the solutions was adjusted with NaOH to pH=7.
Iodine titration: The stability of Sn (II) was further examined by iodine titration assay. Titration measurements were performed as described in Example 1.

Data set [2] can be described thus: FTIR of SnF2-TSPP solution with antioxidant upon aging at 60° C. On the procedure: as §1
Fourier transform infrared spectroscopy (FTIR): Infrared spectra were collected using a Bruker Vertex 70 FTIR spectrometer (Bruker Optics, Billerica, MA) equipped with a GladiATR diamond ATR accessory (Pike technologies, Madison, WI). The spectral range was […] and a resolution of 4 cm^−1 was used. All measurements were carried out at room temperature. The absorption spectrum of solution containing SnF2 and TSPP (herein after referred to as SnF2-TSPP) in the 850-1240 cm^−1 region at different time points: fresh, 1 week and 2 weeks aged at 60° C. was examined. […] The transformation of the complex was manifested in the peak shifts and intensity changes of phosphate bands. […]

Data set [3] can be described thus: 119Sn NMR relative amount of Sn(II) in SnF2-TSPP solution with antioxidant upon aging at 60° C. As to conditions: for Sn(II) left relative to fresh sample: SnF2:TSPP:antioxidant 1:1:0.3, pH 7, after 2 weeks of aging at 60° C.; for Sn(II) content relative to fresh sample: pH 7, after 2 weeks of aging at 60° C. On the procedure:
as §1
Nuclear Magnetic Resonance (NMR): The stability of Sn (II) was further examined by Nuclear Magnetic Resonance (NMR). NMR measurements were performed on samples in the presence of 10% deuterium oxide (D20). All NMR spectra were acquired on a Bruker Avance spectrometer (Bruker-Biospin, Billerica, MA, USA) with a 5 mm liquid nitrogen cryogenic probe operating at 202 MHz for ^31P, and 186.5 MHz ^119Sn at 25° C. ^119Sn and ^31P NMR spectra were acquired on the samples of SnF2-TSPP with three antioxidants: SAP, BHA, or BHT. FIG. 3-5 show ^119Sn and ^31P NMR spectra of the samples upon aging. In the ^119Sn NMR spectra, the peak positioned at around −630 ppm corresponds to Sn(II) in solution at neutral pH. Once Sn(II) was oxidized to Sn(IV) upon aging, the Sn(II) peak intensity decreased and small Sn(IV) spikes appeared between −680 and −750 ppm. The relative amounts of Sn(II) compared to fresh sample were calculated by integrating the peak corresponding to Sn(II) in ^119Sn NMR spectra. The capacity of three […] to stabilize Sn(II) was compared by measuring the Sn(II) content in the samples. About 80% of Sn(II) was left in the samples in the presence of BHA and SAP after 2 weeks of aging at 60° C. BHT sample had 70% Sn(II) remaining after 2 weeks of aging. […] In the ^31P NMR spectra, the peak positioned at −8 ppm corresponds to TSPP.
as §2
Nuclear Magnetic Resonance (NMR): The stability of Sn (II) was further examined by Nuclear Magnetic Resonance (NMR). NMR measurements were performed as described in Example 1. ^119Sn and ^31P NMR spectra were acquired on the samples of SnF2-TSPP with SAP or sodium ascorbate at various SAP/Sn molar ratios, specifically between 0.05 and 0.3, upon aging at 60° C. FIGS. 9 and 10 show ^119Sn and ^31P NMR spectra of the samples upon aging. In the ^119Sn NMR spectra, the peak positioned at around −630 ppm corresponds to Sn(II) in solution at neutral pH. Once Sn(II) was oxidized to Sn(IV), the Sn(II) peak intensity decreased and small Sn(IV) spikes appeared between −680 and −750 ppm. […] The relative amounts of Sn(II) compared to fresh sample were quantified based on the Sn(II) NMR peak integral (FIG. 11A).

A short description of data set [4]: Head-space O2 consumption (differential pressure) during Sn(II) oxidation. Particulars: 29 mM SnF2, 29 mM TSPP, SAP/Sn molar ratios 0.05 and 0.3, 25° C., about 6.5 hours, pH about 6.5. On the procedure: Head-space O2 consumption: Stannous stability in presence of small amounts of SAP was further examined by measuring the rate of oxygen consumption during Sn(II) oxidation process. […] SnF2 was added last as a powder, and the flask was immediately scaled.

With `COc1ccc(O)c(C(C)(C)C)c1` [BHA, butylated hydroxyanisole], the “amount of Sn(II) remaining” value in data set [1] (SnF2:TSPP:antioxidant 1:1:0.3, pH 7, after 2 weeks of 60° C. aging, compared to SnF2-TSPP solution alone) was “positive effect on Sn(II) stability”. Besides, the “change of phosphate vibrational bands / stability of stannous-pyrophosphate complex” value in data set [2] (SnF2:TSPP:antioxidant 1:1:0.3, pH 7, aged 2 weeks at 60° C.) was “improved the stability of stannous-pyrophosphate complex but were less effective than SAP”. In data set [3], the “Sn(II) left relative to fresh sample” value is on record as “About 80%”.
As to `Cc1cc(C(C)(C)C)c(O)c(C(C)(C)C)c1` [BHT, butylated hydroxytoluene], in data set [1] (buffer, 336 h, pH 7), the “amount of Sn(II) remaining” value is on record as “positive effect on Sn(II) stability”. In data set [3], the “Sn(II) left relative to fresh sample” value turned out to be 70%.
In the case of `O=C1O[C@H]([C@@H](O)CO)C([O-])=C1OP(=O)([O-])[O-].[Na+].[Na+].[Na+]` [SAP, sodium ascorbyl phosphate], the “amount of Sn(II) remaining” value in data set [1] (buffer, 336 h, pH 7) is listed as “highest”. In addition, the “head-space differential pressure change (O2 consumption)” value in data set [4] was “no significant pressure drop”. Further, the “Sn(II) left relative to fresh sample” value in data set [3] is recorded as “About 80%”. Further, the “Sn(II) content relative to fresh sample” value in data set [3] (higher SAP/Sn ratio (0.2, 0.3)) was 72%; in data set [3] (lower mole ratio of SAP/Sn (0.05, 0.1)) it was “about 90%”.
As for `O=C1O[C@H]([C@@H](O)CO)C([O-])=C1O.[Na+]` [sodium ascorbate], the “Sn(II) %” value in data set [1] (higher ascorbate/Sn ratio (0.2, 0.3)) is recorded as 70-75%; in data set [1] (lower ascorbate/Sn ratio (0.05, 0.1)), “about 80%”. Moreover, in data set [2] (antioxidant/Sn molar ratio 0.05 to 0.3, pH 7, fresh, 1 week and 2 weeks at 60° C.), the “stability of stannous-pyrophosphate complex” value is given as “increased the stability of the stannous-pyrophosphate complex”.
